{"source": "patent US11339447B2", "about": "“System and method for determining Kareniticin sensitivity on cancer” (CROWN BIOSCIENCE, INC. (TAICANG), priority 2017, dated 2022)", "key": {"PDX LU0884": {"test_system": "PDX LU0884", "experiment": "karenitecin treatment of PDX model", "type": "in vivo", "set-up": "key to Response: responder: responded to karenitecin treatment (AUC<0.5 and TGI>0.8); non_responder: did not respond to karenitecin treatment (AUC>0.5 and TGI<0.6)", "conditions": "karenitecin treatment for two weeks", "description": "(§1) A cohort of 48 PDX models in 8 cancers were used in this study. Those models were subject to karenitecin treatment for two weeks. Both tumor growth inhibition (TGI) and median AUC (area under curve) ratio, a newly developed metric to evaluate drug efficacy, were calculated (Table 1). Those models can be divided into two categories according to TGI and median AUC ratio."}, "PDX GA0087": {"test_system": "PDX GA0087", "experiment": "karenitecin treatment of PDX model", "type": "in vivo", "set-up": "key to Response: responder: responded to karenitecin treatment (AUC<0.5 and TGI>0.8); non_responder: did not respond to karenitecin treatment (AUC>0.5 and TGI<0.6)", "conditions": "karenitecin treatment for two weeks", "description": "as §1"}, "PDX LU1116": {"test_system": "PDX LU1116", "experiment": "karenitecin treatment of PDX model", "type": "in vivo", "set-up": "key to Response: responder: responded to karenitecin treatment (AUC<0.5 and TGI>0.8); non_responder: did not respond to karenitecin treatment (AUC>0.5 and TGI<0.6)", "conditions": "karenitecin treatment for two weeks", "description": "as §1"}, "PDX PA3065": {"test_system": "PDX PA3065", "experiment": "karenitecin treatment of PDX model", "type": "in vivo", "set-up": "key to Response: responder: responded to karenitecin treatment (AUC<0.5 and TGI>0.8); non_responder: did not respond to karenitecin treatment (AUC>0.5 and TGI<0.6)", "conditions": "karenitecin treatment for two weeks", "description": "as §1"}, "PDX CR3079": {"test_system": "PDX CR3079", "experiment": "karenitecin treatment of PDX model", "type": "in vivo", "set-up": "key to Response: responder: responded to karenitecin treatment (AUC<0.5 and TGI>0.8); non_responder: did not respond to karenitecin treatment (AUC>0.5 and TGI<0.6)", "conditions": "karenitecin treatment for two weeks", "description": "as §1"}, "PDX OV1658": {"test_system": "PDX OV1658", "experiment": "karenitecin treatment of PDX model", "type": "in vivo", "set-up": "key to Response: responder: responded to karenitecin treatment (AUC<0.5 and TGI>0.8); non_responder: did not respond to karenitecin treatment (AUC>0.5 and TGI<0.6)", "conditions": "karenitecin treatment for two weeks", "description": "as §1"}, "PDX CR0133": {"test_system": "PDX CR0133", "experiment": "karenitecin treatment of PDX model", "type": "in vivo", "set-up": "key to Response: responder: responded to karenitecin treatment (AUC<0.5 and TGI>0.8); non_responder: did not respond to karenitecin treatment (AUC>0.5 and TGI<0.6)", "conditions": "karenitecin treatment for two weeks", "description": "as §1"}, "PDX CR2524": {"test_system": "PDX CR2524", "experiment": "karenitecin treatment of PDX model", "type": "in vivo", "set-up": "key to Response: responder: responded to karenitecin treatment (AUC<0.5 and TGI>0.8); non_responder: did not respond to karenitecin treatment (AUC>0.5 and TGI<0.6)", "conditions": "karenitecin treatment for two weeks", "description": "as §1"}, "PDX ES0212": {"test_system": "PDX ES0212", "experiment": "karenitecin treatment of PDX model", "type": "in vivo", "set-up": "key to Response: responder: responded to karenitecin treatment (AUC<0.5 and TGI>0.8); non_responder: did not respond to karenitecin treatment (AUC>0.5 and TGI<0.6)", "conditions": "karenitecin treatment for two weeks", "description": "as §1"}, "PDX CR3310": {"test_system": "PDX CR3310", "experiment": "karenitecin treatment of PDX model", "type": "in vivo", "set-up": "key to Response: responder: responded to karenitecin treatment (AUC<0.5 and TGI>0.8); non_responder: did not respond to karenitecin treatment (AUC>0.5 and TGI<0.6)", "conditions": "karenitecin treatment for two weeks", "description": "as §1"}, "PDX CR6249": {"test_system": "PDX CR6249", "experiment": "karenitecin treatment of PDX model", "type": "in vivo", "set-up": "key to Response: responder: responded to karenitecin treatment (AUC<0.5 and TGI>0.8); non_responder: did not respond to karenitecin treatment (AUC>0.5 and TGI<0.6)", "conditions": "karenitecin treatment for two weeks", "description": "as §1"}, "PDX CR1560": {"test_system": "PDX CR1560", "experiment": "karenitecin treatment of PDX model", "type": "in vivo", "set-up": "key to Response: responder: responded to karenitecin treatment (AUC<0.5 and TGI>0.8); non_responder: did not respond to karenitecin treatment (AUC>0.5 and TGI<0.6)", "conditions": "karenitecin treatment for two weeks", "description": "as §1"}, "PDX GL1208": {"test_system": "PDX GL1208", "experiment": "karenitecin treatment of PDX model", "type": "in vivo", "set-up": "key to Response: responder: responded to karenitecin treatment (AUC<0.5 and TGI>0.8); non_responder: did not respond to karenitecin treatment (AUC>0.5 and TGI<0.6)", "conditions": "karenitecin treatment for two weeks", "description": "as §1"}, "PDX LU0858": {"test_system": "PDX LU0858", "experiment": "karenitecin treatment of PDX model", "type": "in vivo", "set-up": "key to Response: responder: responded to karenitecin treatment (AUC<0.5 and TGI>0.8); non_responder: did not respond to karenitecin treatment (AUC>0.5 and TGI<0.6)", "conditions": "karenitecin treatment for two weeks", "description": "as §1"}, "PDX OV0273": {"test_system": "PDX OV0273", "experiment": "karenitecin treatment of PDX model", "type": "in vivo", "set-up": "key to Response: responder: responded to karenitecin treatment (AUC<0.5 and TGI>0.8); non_responder: did not respond to karenitecin treatment (AUC>0.5 and TGI<0.6)", "conditions": "karenitecin treatment for two weeks", "description": "as §1"}, "PDX SA0271": {"test_system": "PDX SA0271", "experiment": "karenitecin treatment of PDX model", "type": "in vivo", "set-up": "key to Response: responder: responded to karenitecin treatment (AUC<0.5 and TGI>0.8); non_responder: did not respond to karenitecin treatment (AUC>0.5 and TGI<0.6)", "conditions": "karenitecin treatment for two weeks", "description": "as §1"}, "PDX ES0201": {"test_system": "PDX ES0201", "experiment": "karenitecin treatment of PDX model", "type": "in vivo", "set-up": "key to Response: responder: responded to karenitecin treatment (AUC<0.5 and TGI>0.8); non_responder: did not respond to karenitecin treatment (AUC>0.5 and TGI<0.6)", "conditions": "karenitecin treatment for two weeks", "description": "as §1"}, "[1]": {"test_system": "extensively pretreated ovarian cancer", "conditions": "previous clinical trial (Kavanagh 2008); cited from earlier work"}, "[2]": {"test_system": "48 PDX models in 8 cancers", "experiment": "karenitecin treatment of a cohort of 48 PDX models", "type": "in vivo", "conditions": "number of the 48 PDX models in 8 cancers; treatment for two weeks", "description": "as §1"}}, "data": [{"compound": "CC[C@@]1(O)C(=O)OCc2c1cc1n(c2=O)Cc2c-1nc1ccccc1c2CC[Si](C)(C)C", "note": "[karenitecin]", "values": [{"measurement": "Median AUC ratio", "setting": "PDX LU0884", "result": 1.497}, {"measurement": "Response", "setting": "PDX LU0884", "result": "non_responder"}, {"measurement": "TGI", "setting": "PDX LU0884", "result": "−0.188"}, {"measurement": "Median AUC ratio", "setting": "PDX GA0087", "result": "−1.097"}, {"measurement": "Response", "setting": "PDX GA0087", "result": "responder"}, {"measurement": "TGI", "setting": "PDX GA0087", "result": 1.316}, {"measurement": "Median AUC ratio", "setting": "PDX LU1116", "result": 0.111}, {"measurement": "Response", "setting": "PDX LU1116", "result": "responder"}, {"measurement": "TGI", "setting": "PDX LU1116", "result": 1.250}, {"measurement": "Median AUC ratio", "setting": "PDX PA3065", "result": 0.309}, {"measurement": "Response", "setting": "PDX PA3065", "result": "responder"}, {"measurement": "TGI", "setting": "PDX PA3065", "result": 1.019}, {"measurement": "Median AUC ratio", "setting": "PDX CR3079", "result": 0.706}, {"measurement": "Response", "setting": "PDX CR3079", "result": "non_responder"}, {"measurement": "TGI", "setting": "PDX CR3079", "result": 0.381}, {"measurement": "Median AUC ratio", "setting": "PDX OV1658", "result": 0.764}, {"measurement": "Response", "setting": "PDX OV1658", "result": "non_responder"}, {"measurement": "TGI", "setting": "PDX OV1658", "result": 0.433}, {"measurement": "Median AUC ratio", "setting": "PDX CR0133", "result": 0.275}, {"measurement": "Response", "setting": "PDX CR0133", "result": "responder"}, {"measurement": "TGI", "setting": "PDX CR0133", "result": 0.905}, {"measurement": "Median AUC ratio", "setting": "PDX CR2524", "result": 0.333}, {"measurement": "Response", "setting": "PDX CR2524", "result": "responder"}, {"measurement": "TGI", "setting": "PDX CR2524", "result": 1.120}, {"measurement": "Median AUC ratio", "setting": "PDX ES0212", "result": 0.061}, {"measurement": "Response", "setting": "PDX ES0212", "result": "responder"}, {"measurement": "TGI", "setting": "PDX ES0212", "result": 1.017}, {"measurement": "Median AUC ratio", "setting": "PDX CR3310", "result": "−0.926"}, {"measurement": "Response", "setting": "PDX CR3310", "result": "responder"}, {"measurement": "TGI", "setting": "PDX CR3310", "result": 1.727}, {"measurement": "Median AUC ratio", "setting": "PDX CR6249", "result": "−0.712"}, {"measurement": "Response", "setting": "PDX CR6249", "result": "responder"}, {"measurement": "TGI", "setting": "PDX CR6249", "result": 1.253}, {"measurement": "Median AUC ratio", "setting": "PDX CR1560", "result": 0.397}, {"measurement": "Response", "setting": "PDX CR1560", "result": "responder"}, {"measurement": "TGI", "setting": "PDX CR1560", "result": 1.146}, {"measurement": "Median AUC ratio", "setting": "PDX GL1208", "result": 0.811}, {"measurement": "Response", "setting": "PDX GL1208", "result": "non_responder"}, {"measurement": "TGI", "setting": "PDX GL1208", "result": 0.135}, {"measurement": "Median AUC ratio", "setting": "PDX LU0858", "result": 0.027}, {"measurement": "Response", "setting": "PDX LU0858", "result": "responder"}, {"measurement": "TGI", "setting": "PDX LU0858", "result": 1.000}, {"measurement": "Median AUC ratio", "setting": "PDX OV0273", "result": "−0.092"}, {"measurement": "Response", "setting": "PDX OV0273", "result": "responder"}, {"measurement": "TGI", "setting": "PDX OV0273", "result": 1.052}, {"measurement": "Median AUC ratio", "setting": "PDX SA0271", "result": "−0.133"}, {"measurement": "Response", "setting": "PDX SA0271", "result": "responder"}, {"measurement": "TGI", "setting": "PDX SA0271", "result": 1.104}, {"measurement": "Median AUC ratio", "setting": "PDX ES0201", "result": 1.093}, {"measurement": "Response", "setting": "PDX ES0201", "result": "non_responder"}, {"measurement": "TGI", "setting": "PDX ES0201", "result": 0.529}, {"measurement": "response rate", "setting": "[1]", "result": "low"}, {"measurement": "models did not respond to karenitecin treatment (AUC>0.5 and TGI<0.6)", "setting": "[2]", "result": 17}, {"measurement": "models responded to karenitecin treatment (AUC<0.5 and TGI>0.8)", "setting": "[2]", "result": "Thirty-one"}]}]}
